Reference: patent publication US20210253572A1, “IMIDAZO[1,2-B]PYRIDAZINES AS TRK INHIBITORS” (BenevolentAl Bio Limited, priority 2018, published 2021)

Tests used:
Format in all cases: biochemical
[1] = biological target: T1, TrkB (Homo sapiens, UniProt Q16620); experiment: HTRF KinEASE kinase assay, recombinant Human TRK enzyme, TrkB (NTRK2); conditions: NTRK2 1 nM, read-out: TrkB Enz
T1 construct: purchased Invitrogen
Experimental: (§1) A suitable assay for determining the Trk inhibition activity of a compound is detailed herein below.
(§2) To determine the IC50 of small molecule compounds for the Human TRK receptors, HTRF® KinEASE™ kinase kits from Cisbio were used. Assays were carried out in low volume, black 384-well plates.
(§3) Recombinant Human TRK enzymes (Invitrogen) were incubated in the presence or absence of the compound (11-point dose response with FAC as 10 μM) for 30 minutes at 23° C. Kinase reaction was started by addition of ATP to a mixture containing the enzyme (NTRK1-4 nM, NTRK2-1 nM, NTRK3-10 nM) and substrate (1 μM). Kinase reaction was allowed to carry on for 10 to 45 minutes at 23° C. after which it was stopped by addition of the detection mix (supplied by vendor) containing EDTA, TK-Ab-labelled with Eu^3+-cryptate (1:200 dilutions) and Streptavidin-XL665 (250 nM). Assay plates were incubated in this detection mix for 60 minutes at 23° C. The resulting TR-FRET signal, calculated as the fluorescence ratio at 665/620 nm, was read on an Envision and was proportional to the level of phosphorylation of the peptide in the presence or absence of the compound. The uniformity of the plates were assured with Z′ value [1−{3*(SDHPE+SDZPE)/(ZPE−HPE)}]. The percent (%) effect i.e. Inhibition of compound was calculated in comparison to the signal in the positive (HPE) and negative control (ZPE) wells within each assay plate. The endpoint value % Inhibition for the Standard compound was evaluated in each experiment as a quality control measure. IC50 was determined by plotting compound inhibition at respective dose in Graphpad prism5 using four parameter logistic curve fit.

[2] = biological target: T2, TrkC (Homo sapiens, UniProt Q16288); experiment: HTRF KinEASE kinase assay, recombinant Human TRK enzyme, TrkC (NTRK3); conditions: NTRK3 10 nM, read-out: TrkC Enz
T2 construct: purchased Invitrogen
T2 sequence (Q16288 32-839): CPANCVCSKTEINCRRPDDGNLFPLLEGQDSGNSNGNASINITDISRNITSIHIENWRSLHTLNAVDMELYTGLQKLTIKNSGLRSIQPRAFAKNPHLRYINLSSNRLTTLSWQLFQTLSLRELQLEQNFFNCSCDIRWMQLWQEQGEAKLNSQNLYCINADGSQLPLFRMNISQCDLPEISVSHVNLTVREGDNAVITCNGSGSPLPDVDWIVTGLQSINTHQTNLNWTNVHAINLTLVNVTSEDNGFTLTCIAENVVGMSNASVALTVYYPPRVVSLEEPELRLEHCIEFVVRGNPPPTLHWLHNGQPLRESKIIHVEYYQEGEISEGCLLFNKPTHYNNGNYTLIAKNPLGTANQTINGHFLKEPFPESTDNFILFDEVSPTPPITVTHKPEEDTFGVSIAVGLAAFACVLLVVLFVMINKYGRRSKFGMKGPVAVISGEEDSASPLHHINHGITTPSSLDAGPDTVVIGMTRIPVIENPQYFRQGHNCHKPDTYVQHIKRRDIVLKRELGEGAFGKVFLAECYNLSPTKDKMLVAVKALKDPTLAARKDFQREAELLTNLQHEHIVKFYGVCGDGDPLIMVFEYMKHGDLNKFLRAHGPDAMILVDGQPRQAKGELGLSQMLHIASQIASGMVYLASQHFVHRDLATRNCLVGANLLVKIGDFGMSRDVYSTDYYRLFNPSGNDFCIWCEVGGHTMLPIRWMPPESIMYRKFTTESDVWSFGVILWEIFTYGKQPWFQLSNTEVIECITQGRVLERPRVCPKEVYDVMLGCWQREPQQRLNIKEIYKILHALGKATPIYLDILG
Experimental: as §1, §2, §3

[3] = biological target: T3, TrkA (Homo sapiens, UniProt P04629); experiment: HTRF KinEASE kinase assay, recombinant Human TRK enzyme, TrkA (NTRK1); conditions: NTRK1 4 nM, read-out: TrkA Enz
T3 construct: purchased Invitrogen
T3 sequence (P04629 33-796): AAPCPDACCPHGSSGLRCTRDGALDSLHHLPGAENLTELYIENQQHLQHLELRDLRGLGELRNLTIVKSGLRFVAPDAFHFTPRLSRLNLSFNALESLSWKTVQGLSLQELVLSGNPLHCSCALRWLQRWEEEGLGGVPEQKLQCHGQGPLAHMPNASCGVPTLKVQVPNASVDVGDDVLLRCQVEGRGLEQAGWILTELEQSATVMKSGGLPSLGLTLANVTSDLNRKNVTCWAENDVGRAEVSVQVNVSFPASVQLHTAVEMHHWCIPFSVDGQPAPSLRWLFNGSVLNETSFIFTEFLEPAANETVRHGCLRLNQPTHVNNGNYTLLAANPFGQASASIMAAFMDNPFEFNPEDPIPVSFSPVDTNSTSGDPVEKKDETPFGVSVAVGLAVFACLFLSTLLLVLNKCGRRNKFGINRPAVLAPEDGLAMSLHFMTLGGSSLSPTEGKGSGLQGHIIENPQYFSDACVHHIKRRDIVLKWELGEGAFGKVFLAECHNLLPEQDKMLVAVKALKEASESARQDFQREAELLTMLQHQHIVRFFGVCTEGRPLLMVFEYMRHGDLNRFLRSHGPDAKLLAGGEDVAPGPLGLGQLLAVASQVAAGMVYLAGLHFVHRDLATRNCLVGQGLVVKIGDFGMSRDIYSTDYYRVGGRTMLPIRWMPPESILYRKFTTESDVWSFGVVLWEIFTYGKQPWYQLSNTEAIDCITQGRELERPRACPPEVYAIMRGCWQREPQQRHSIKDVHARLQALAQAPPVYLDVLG
Experimental: as §1, §2, §3

T1 sequence (Q16620 32-822): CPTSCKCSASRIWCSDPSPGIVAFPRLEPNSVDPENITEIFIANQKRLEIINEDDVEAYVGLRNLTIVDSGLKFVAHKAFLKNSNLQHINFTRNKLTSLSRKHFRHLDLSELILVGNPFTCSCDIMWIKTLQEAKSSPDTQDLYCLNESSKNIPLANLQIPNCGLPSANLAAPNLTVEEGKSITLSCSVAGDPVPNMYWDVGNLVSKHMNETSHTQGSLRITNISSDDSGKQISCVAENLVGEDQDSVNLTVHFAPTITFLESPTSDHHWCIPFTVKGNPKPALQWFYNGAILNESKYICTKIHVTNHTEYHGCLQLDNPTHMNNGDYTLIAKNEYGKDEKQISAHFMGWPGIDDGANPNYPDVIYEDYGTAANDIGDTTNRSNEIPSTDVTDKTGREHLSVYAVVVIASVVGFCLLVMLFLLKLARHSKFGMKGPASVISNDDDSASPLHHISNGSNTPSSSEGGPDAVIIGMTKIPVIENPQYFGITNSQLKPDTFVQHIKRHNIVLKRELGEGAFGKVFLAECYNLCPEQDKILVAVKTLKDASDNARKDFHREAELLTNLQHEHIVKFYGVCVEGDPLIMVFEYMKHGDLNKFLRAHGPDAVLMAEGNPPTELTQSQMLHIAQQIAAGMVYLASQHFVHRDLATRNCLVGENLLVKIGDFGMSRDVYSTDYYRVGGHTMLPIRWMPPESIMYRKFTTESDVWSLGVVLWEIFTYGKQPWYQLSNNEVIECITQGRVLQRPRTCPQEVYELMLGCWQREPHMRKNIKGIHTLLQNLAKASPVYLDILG

Compound	IC50 [1] [nM]	IC50 [2] [nM]	IC50 [3] [nM]
CSc1cc(F)cc([C@H]2C[C@H](F)CN2c2ccc3ncc(C(=O)N[C@@H]4COCCN(Cc5ccc(F)c(O)c5)C4)n3n2)c1 (single isomer, unassigned) [Example 24]	23.6	17.3	6.9
CSc1cc(F)cc([C@H]2C[C@H](F)CN2c2ccc3ncc(C(=O)N[C@H]4COCCN(Cc5ccc(F)c(O)c5)C4)n3n2)c1 (single isomer, unassigned) [Example 25]	11.4	8.72	6.1
CCCCC(=O)Oc1cccc(CN2CC[C@H](NC(=O)c3cnc4ccc(N5C[C@@H](F)C[C@@H]5c5cc(F)ccc5SC)nn34)C2)c1 [Example 9, 3-{[(3S)-3-{6-[(2R,4S)-4-fluoro-2-[5-fluoro-2-(methylsulfanyl)phenyl]pyrrolidin-1-yl]imidazo[1,2-b]pyridazine-3-amido}pyrrolidin-1-yl]methyl}phenyl Pentanoate]	8.76	8.43	3.81
CCCCOC(=O)c1cccc(CN2CC[C@H](NC(=O)c3cnc4ccc(N5C[C@@H](F)C[C@@H]5c5cc(F)ccc5SC)nn34)C2)c1 [Example 12, Butyl 3-{[(3S)-3-{6-[(2R,4S)-4-fluoro-2-[5-fluoro-2-(methylsulfanyl)phenyl]pyrrolidin-1-yl]imidazo[1,2-b]pyridazine-3-amido}pyrrolidin-1-yl]methyl}benzoate]	10.3	10.9	3.82
CSc1cc(F)cc([C@H]2CCCN2c2ccc3ncc(C(=O)N[C@H]4CCN(Cc5ccc(F)c(O)c5)C4)n3n2)c1 [Example 15, N-[(3S)-1-[(4-fluoro-3-hydroxyphenyl)methyl]pyrrolidin-3-yl]-6-[(2R)-2-[3-fluoro-5-(methylsulfanyl)phenyl]pyrrolidin-1-yl]imidazo[1,2-b]pyridazine-3-carboxamide]	9.15	8.3	4.86
COC(=O)c1cccc(CN2CC[C@H](NC(=O)c3cnc4ccc(N5C[C@@H](F)C[C@@H]5c5cc(F)cc(SC)c5)nn34)C2)c1 [Example 16, Methyl 3-{[(3S)-3-{6-[(2R,4S)-4-fluoro-2-[3-fluoro-5-(methylsulfanyl)phenyl]pyrrolidin-1-yl]imidazo[1,2-b]pyridazine-3-amido}pyrrolidin-1-yl]methyl}benzoate]	4.54	3.28	1.73
CSc1cc(F)cc([C@H]2C[C@H](F)CN2c2ccc3ncc(C(=O)N[C@H]4CCN(Cc5cccc(O)c5)C4)n3n2)c1 [Example 17, 6-[(2R,4S)-4-fluoro-2-[3-fluoro-5-(methylsulfanyl)phenyl]pyrrolidin-1-yl]-N-[(3S)-1-[(3-hydroxyphenyl)methyl]pyrrolidin-3-yl]imidazo[1,2-b]pyridazine-3-carboxamide]	5.04	4.62	2.41
CSc1cc(F)cc([C@H]2C[C@H](F)CN2c2ccc3ncc(C(=O)N[C@H]4CCN(Cc5ccc(F)c(O)c5)C4)n3n2)c1 [Example 18, 6-[(2R,4S)-4-fluoro-2-[3-fluoro-5-(methylsulfanyl)phenyl]pyrrolidin-1-yl]-N-[(3S)-1-[(4-fluoro-3-hydroxyphenyl)methyl]pyrrolidin-3-yl]imidazo[1,2-b]pyridazine-3-carboxamide]	7.82	5.19	2.87

The next molecules have a lower IC50 [1] than those just listed; values first:

IC50 [1] [nM]	IC50 [2] [nM]	IC50 [3] [nM]	Compound
2.06	2.81	1.77	CSc1ccc(F)cc1[C@H]1CCCN1c1ccc2ncc(C(=O)NC3CN(Cc4ccc(F)c(O)c4)C3)n2n1 [Example 1, 6-[(2R)-2-[5-fluoro-2-(methylsulfanyl)phenyl]pyrrolidin-1-yl]-N-{1-[(4-fluoro-3-hydroxyphenyl)methyl]azetidin-3-yl}imidazo[1,2-b]pyridazine-3-carboxamide]
3.33	3.36	1.78	CSc1ccc(F)cc1[C@H]1CCCN1c1ccc2ncc(C(=O)N[C@H]3CCN(Cc4ccc(F)c(O)c4)C3)n2n1 [Example 2, 6-[(2R)-2-[5-fluoro-2-(methylsulfanyl)phenyl]pyrrolidin-1-yl]-N-[(3S)-1-[(4-fluoro-3-hydroxyphenyl)methyl]pyrrolidin-3-yl]imidazo[1,2-b]pyridazine-3-carboxamide]
0.79	1.19	0.92	CSc1ccc(F)cc1[C@H]1C[C@H](F)CN1c1ccc2ncc(C(=O)NC3CCN(Cc4cccc(O)c4)CC3)n2n1 [Example 3, 6-[(2R,4S)-4-fluoro-2-[5-fluoro-2-(methylsulfanyl)phenyl]pyrrolidin-1-yl]-N-{1-[(3-hydroxyphenyl)methyl]piperidin-4-yl}imidazo[1,2-b]pyridazine-3-carboxamide]
1.05	1.93	1.75	CSc1ccc(F)cc1[C@H]1C[C@H](F)CN1c1ccc2ncc(C(=O)NC3CN(Cc4ccc(F)c(O)c4)C3)n2n1 [Example 4, 6-[(2R,4S)-4-fluoro-2-[5-fluoro-2-(methylsulfanyl)phenyl]pyrrolidin-1-yl]-N-{1-[(4-fluoro-3-hydroxyphenyl)methyl]azetidin-3-yl}imidazo[1,2-b]pyridazine-3-carboxamide]
1.19	2.11	1.9	CSc1ccc(F)cc1[C@H]1C[C@H](F)CN1c1ccc2ncc(C(=O)NC3CN(Cc4cccc(O)c4)C3)n2n1 [Example 5, 6-[(2R,4S)-4-fluoro-2-[5-fluoro-2-(methylsulfanyl)phenyl]pyrrolidin-1-yl]-N-{1-[(3-hydroxyphenyl)methyl]azetidin-3-yl}imidazo[1,2-b]pyridazine-3-carboxamide]
0.81	1.56	1.47	CSc1ccc(F)cc1[C@H]1C[C@H](F)CN1c1ccc2ncc(C(=O)NC3CCN(Cc4ccc(F)c(O)c4)CC3)n2n1 [Example 6, 6-[(2R,4S)-4-fluoro-2-[5-fluoro-2-(methylsulfanyl)phenyl]pyrrolidin-1-yl]-N-{1-[(4-fluoro-3-hydroxyphenyl)methyl]piperidin-4-yl}imidazo[1,2-b]pyridazine-3-carboxamide]
0.49	1.25	0.9	CSc1ccc(F)cc1[C@H]1C[C@H](F)CN1c1ccc2ncc(C(=O)NCc3cccc(O)c3)n2n1 [Example 7, 6-[(2R,4S)-4-fluoro-2-[5-fluoro-2-(methylsulfanyl)phenyl]pyrrolidin-1-yl]-N-[(3-hydroxyphenyl)methyl]imidazo[1,2-b]pyridazine-3-carboxamide]
1.51	1.64	0.79	CSc1ccc(F)cc1[C@H]1C[C@H](F)CN1c1ccc2ncc(C(=O)N[C@H]3CCN(Cc4cccc(O)c4)C3)n2n1 [Example 8, 6-[(2R,4S)-4-fluoro-2-[5-fluoro-2-(methylsulfanyl)phenyl]pyrrolidin-1-yl]-N-[(3S)-1-[(3-hydroxyphenyl)methyl]pyrrolidin-3-yl]imidazo[1,2-b]pyridazine-3-carboxamide]
2.15	2.12	1.18	COC(=O)c1cccc(CN2CC[C@H](NC(=O)c3cnc4ccc(N5C[C@@H](F)C[C@@H]5c5cc(F)ccc5SC)nn34)C2)c1 [Example 10, Methyl 3-{[(3S)-3-{6-[(2R,4S)-4-fluoro-2-[5-fluoro-2-(methylsulfanyl)phenyl]pyrrolidin-1-yl]imidazo[1,2-b]pyridazine-3-amido}pyrrolidin-1-yl]methyl}benzoate]
2.27	2.46	1.57	CSc1ccc(F)cc1[C@H]1C[C@H](F)CN1c1ccc2ncc(C(=O)N[C@H]3CCN(Cc4ccc(F)c(O)c4)C3)n2n1 [Example 11, 6-[(2R,4S)-4-fluoro-2-[5-fluoro-2-(methylsulfanyl)phenyl]pyrrolidin-1-yl]-N-[(3S)-1-[(4-fluoro-3-hydroxyphenyl)methyl]pyrrolidin-3-yl]imidazo[1,2-b]pyridazine-3-carboxamide]
2.53	2.01	1.7	CCOC(=O)c1cccc(CN2CC[C@H](NC(=O)c3cnc4ccc(N5C[C@@H](F)C[C@@H]5c5cc(F)ccc5SC)nn34)C2)c1 [Example 13, Ethyl 3-{[(3S)-3-{6-[(2R,4S)-4-fluoro-2-[5-fluoro-2-(methylsulfanyl)phenyl]pyrrolidin-1-yl]imidazo[1,2-b]pyridazine-3-amido}pyrrolidin-1-yl]methyl}benzoate]
0.57	1.47	0.95	CSc1ccc(F)cc1[C@H]1C[C@H](F)CN1c1ccc2ncc(C(=O)NCc3ccc(F)c(O)c3)n2n1 [Example 14, 6-[(2R,4S)-4-fluoro-2-[5-fluoro-2-(methylsulfanyl)phenyl]pyrrolidin-1-yl]-N-[(4-fluoro-3-hydroxyphenyl)methyl]imidazo[1,2-b]pyridazine-3-carboxamide]
